Data published in patent publication US10473666B2, “Dye compounds” (SFC CO., LTD., priority 2015, dated 2019).

Legend:
[1] = Absorption spectra, emission spectra, molar extinction coefficients and quantum yields of the dye compounds; format: physicochemical
[2] = Photophysical properties incl. two-photon cross-sections (femtosecond fluorescence measurement technique); format: physicochemical; conditions: for eΦ: Molar extinction coefficient × fluorescence quantum yield: in M-1cm-1
Description: All measurements were performed in DMSO, ethanol, and PBS buffer. Two-photon cross-sections (δ) were measured using a femtosecond (fs) fluorescence measurement technique.

Row | SMILES | Quantum yield ([1]; Table 6, solvent DMSO) | ε (molar extinction coefficient) ([1]; Table 6, solvent DMSO) | λabs ([1]; Table 6, solvent DMSO) | λem ([1]; Table 6, solvent DMSO) | Quantum yield ([1]; Table 6, solvent EtOH) | ε (molar extinction coefficient) ([1]; Table 6, solvent EtOH) | λabs ([1]; Table 6, solvent EtOH) | λem ([1]; Table 6, solvent EtOH) | Quantum yield ([1]; Table 6, solvent PBS) | ε (molar extinction coefficient) ([1]; Table 6, solvent PBS) | λabs ([1]; Table 6, solvent PBS) | λem ([1]; Table 6, solvent PBS) | d: Peak two-photon cross-section ([2]; Buffer (PBS buffer)) | dΦ: Two-photon action cross-section ([2]; Buffer (PBS buffer)) | Φ: Fluorescence quantum yield ([2]; Buffer (PBS buffer)) | λ^(2)max^abs: Maximum wavelength in two-photon absorption spectrum ([2]; Buffer (PBS buffer)) | λmax^fl: Maximum wavelength in single-photon emission spectrum ([2]; Buffer (PBS buffer)) | eΦ: Molar extinction coefficient × fluorescence quantum yield ([2]; Buffer (PBS buffer)) | Φ: Fluorescence quantum yield ([2]; DMSO) | λmax^fl: Maximum wavelength in single-photon emission spectrum ([2]; DMSO) | other results
1 | CC1(C)C2=C3C=C4C=C(C(=O)O)C(=O)C=C4OC3CCN2c2ccc(S(=O)(=O)O)cc21 (stereo not drawn) [Formula 53] | – | – | – | – | – | – | – | – | – | – | – | – | – | – | – | – | – | – | – | – | Quantum yield ([1]; Table 4, solvent DMSO): 0.95; ε (molar extinction coefficient) ([1]; Table 4, solvent DMSO): 33,000 M^−1cm^−1; λabs ([1]; Table 4, solvent DMSO): 546 nm; λem ([1]; Table 4, solvent DMSO): 570 nm
2 | COc1ccc2c(c1)OC1CC[N+]3=C(C1=C2)C(C)(C)c1ccccc13 (stereo not drawn) [Formula 99] | 0.65 | 21,000 M^−1cm^−1 | 467 nm | 563 nm | 0.52 | 22,000 M^−1cm^−1 | 474 nm | 558 nm | 0.42 | 30,000 M^−1cm^−1 | 463 nm | 558 nm | – | – | – | – | – | – | – | – | –
3 | CC1(C)C2=[N+](CCC3Oc4c(cc5c6c4CCCN6CCC5)C=C23)c2ccccc21 (stereo not drawn) [Formula 100] | 0.90 | 65,000 M^−1cm^−1 | 594 nm | 618 nm | 0.90 | 75,000 M^−1cm^−1 | 592 nm | 612 nm | 0.80 | 54,000 M^−1cm^−1 | 589 nm | 608 nm | 272 10^−50 cm^4s per photon (GM) | 177 GM | 0.65 | 740 nm | 611 nm | 61750 | 0.90 | 618 nm | dΦ: Two-photon action cross-section ([2]; EtOH): 114 GM; λ^(2)max^abs: Maximum wavelength in two-photon absorption spectrum ([2]; EtOH): 750 nm
4 | C1=C2c3sc4ccccc4[n+]3CCC2Oc2c1cc1c3c2CCCN3CCC1 (stereo not drawn) [Formula 101] | 0.70 | 54,000 M^−1cm^−1 | 584 nm | 630 nm | 0.87 | 66,000 M^−1cm^−1 | 585 nm | 623 nm | 0.61 | 49,000 M^−1cm^−1 | 578 nm | 619 nm | 89 10^−50 cm^4s per photon (GM) | 54 GM | 0.61 | 740 nm | 619 nm | 29890 | 0.70 | 630 nm | dΦ: Two-photon action cross-section ([2]; EtOH): 54 GM; λ^(2)max^abs: Maximum wavelength in two-photon absorption spectrum ([2]; EtOH): 720 nm
5 | Oc1ccc2c(c1)OC1CC[n+]3c(sc4ccccc43)C1=C2 (stereo not drawn) [Formula 102] | 0.99 | 23,000 M^−1cm^−1 | 570 nm | 586 nm | 0.78 | 6,800 M^−1cm^−1 | 557 nm | 578 nm | 0.70 | 7,100 M^−1cm^−1 | 524 nm | 571 nm | 60 10^−50 cm^4s per photon (GM) | 42 GM | 0.70 | 910 nm | 571 nm | 4970 | 1.00 | 586 nm | dΦ: Two-photon action cross-section ([2]; EtOH): 7.6 GM; λ^(2)max^abs: Maximum wavelength in two-photon absorption spectrum ([2]; EtOH): 750 nm
6 | CC1(C)C2=C3C=C4C=C(C=O)C(=O)C=C4OC3CCN2c2ccccc21 (stereo not drawn) [Formula 103] | 0.88 | 108,000 M^−1cm^−1 | 566 nm | 586 nm | 0.84 | 70,000 M^−1cm^−1 | 547 nm | 574 nm | 0.79 | 48,000 M^−1cm^−1 | 516 nm | 563 nm | – | – | – | – | – | – | – | – | –
7 | C[n+]1c(/C=C/C2=CC3=CC4=C5N(CCC4OC3=CC2=O)c2ccccc2C5(C)C)sc2ccccc21 (stereo not drawn) [Formula 104] | 0.38 | 52,000 M^−1cm^−1 | 646 nm | 685 nm | – | – | – | – | 0.09 | 28,000 M^−1cm^−1 | 559 nm | 572 nm | – | – | – | – | – | – | – | – | –
8 | CC1=CC(C)(C)N2CCCc3c4c(cc1c32)C=C1C2=[N+](CCC1O4)c1ccccc1C2(C)C (stereo not drawn) [Formula 105] | 0.70 | 37,000 M^−1cm^−1 | 613 nm | 649 nm | 0.50 | 44,000 M^−1cm^−1 | 611 nm | 645 nm | 0.28 | 35,000 M^−1cm^−1 | 604 nm | 643 nm | – | – | – | – | – | – | – | – | –
9 | CC1=CC(C)(C)N(CCCCCC(=O)O)c2cc3c(cc21)C=C1C2=[N+](CCC1O3)c1ccc3ccccc3c1C2(C)C (stereo not drawn) [Formula 106] | 0.72 | 55,000 M^−1cm^−1 | 620 nm | 660 nm | 0.59 | 70,000 M^−1cm^−1 | 620 nm | 657 nm | 0.21 | 29,000 M^−1cm^−1 | 616 nm | 652 nm | – | – | – | – | – | – | – | – | –
10 | CC1=CC(C)(C)N2CCCc3c4c(cc1c32)C=C1C2=[N+](CCC1O4)c1ccc3ccccc3c1C2(C)C (stereo not drawn) [Formula 107] | 0.70 | 40,000 M^−1cm^−1 | 629 nm | 664 nm | 0.52 | 50,000 M^−1cm^−1 | 628 nm | 659 nm | 0.29 | 37,000 M^−1cm^−1 | 624 nm | 655 nm | – | – | – | – | – | – | – | – | –
